Measured values: article PMC9309159, “Identification of heptapeptides targeting a lethal bacterial strain in septic mice through an integrative approach” (Signal Transduction and Targeted Therapy, 2022)
Entries after “also recorded” stand apart in the source; their conditions may differ.

Legend:
bacterial strain MSI001 = assay: In vitro antibacterial assay (colony counting); format: cell-based, Escherichia coli; details: 1 × 10^3 CFU, peptide 0.25, 0.5, 1 μmol/L, 37 °C, 1-8 h, colony count, n = 3
Procedure: (§1) Fig. 6 Antimicrobial activity of the C7C-LL37 fusion peptides in vitro. a Primary structures and physical properties of the C7C and LL37 fusion peptides, including LL37, VTK-LL37, LL37-VTK, KYY-LL37 and LL37-KYY, ISS-LL37, INS-LL37. Net charge, PI and GRAVY values were acquired as described above. b Inhibitory effect of C7C-LL37 fusion peptides on bacterial growth. A C7C-LL37 fusion peptide or LL37 alone was added to the cultured bacterial strain MSI001 (1 × 10^3 CFU) at final concentrations of 0.25 μmol/L, 0.5 μmol/L and 1 μmol/L. Sterile DPBS was used as control. After incubation with the C7C-LL37 or LL37 peptides at 37 °C for different times (1-8 h), bacterial colonies were counted. n = 3. *P < 0.05, VTK-LL37 group compared to LL37 group; ^#P < 0.05, LL37-VTK group compared to LL37 group. c, d Inhibitory effect of VTK-LL37 on biofilm formation. The VTK-LL37 or LL37 peptide was added to the bacterial culture at a final concentration of 0-4 μmol/L and incubated at 37 °C for 3 days. Bacterial culture medium and the peptides were refreshed every day. The biofilm was stained with 1% crystal violet, and the precipitates were dissolved in 95% ethanol, followed by detection of absorbance at 570 nm (A570) (c). Moreover, the biofilm was observed under a microscope (d). n = 5. *P < 0.05, VTK-LL37 group compared to LL37 group […]

E. coli MSI001 = assay: Biofilm detection (crystal violet, A570); format: cell-based, Escherichia coli; details: peptide 0-4 μmol/L, 37 °C, 3 days, A570, n = 5
Procedure: as §1, with “The VTK-LL37 or LL37 peptide was added to the bacterial culture at a final concentration of 0-4 μmol/L and incubated at 37 °C for 3 days. Bacterial culture medium and the peptides were refreshed every day.” left out, “(c).” for “(c). Moreover, the biofilm was observed under a microscope (d). n = 5. *P < 0.05, VTK-LL37 group compared to LL37 group”
When the OD600 of the bacterial suspension reached 1.0, the bacteria were transferred to a 96-well plate, and the VTK-LL37 or LL37 peptide was added at final concentrations of 0.5 μmol/L, 1 μmol/L, 2 μmol/L, or 4 μmol/L, followed by incubation at 37 °C. […] Bacterial biofilms were observed by microscopy and quantitated by spectrometry. […]

CLP mice = assay: Survival of CLP mice; format: in vivo, C57BL/6 mice; details: peptide 0.2 nmol/g i.v. 1 h after CLP; observed up to 168 h; Kaplan-Meier; n = 15
Description: (§2) Wild-type C57 mice were intraperitoneally injected with MSI001 bacteria (6 × 10^6 CFU/g body weight) to reproduce a sepsis model. […] Normal saline (NS) was used as control. […] One hour after CLP modeling, the mice were intravenously injected with LL37 or VTK-LL37 peptide at a dosage of 0.2 nmol/g body weight. Equal volume of normal saline (NS) was used as control. […] The mice were intraperitoneally injected with MSI001 bacteria. One hour later, the mice were subjected to tail vein injection (TVI) with VTK-LL37 (VTK-LL37 group), LL37 (LL37 group) or an equivalent volume of NS (sepsis group). Wild-type mice without modeling were used as controls (control group). The blood bacteria were quantitated as colony forming units (CFU) 12 h after injection of bacteria. n = 8. *P < 0.05, compared to control; ^#P < 0.05, compared to sepsis group^; ΔP < 0.05, compared to LL37 group. Results are expressed as the median with range. d Suppression of VTK-LL37 on the production of HMGB1 in the blood of septic mice. […] Twelve hours after bacterial injection, HMGB1 in the serum was quantitated by ELISA. n = 8. *P < 0.05, compared to control; ^#P < 0.05, compared to sepsis group; ^ΔP < 0.05, compared to LL37 group^. Results are expressed as the mean ± SD. e, f Protective effect of VTK-LL37 against organ damage in mice subjected to bacterial injection. […]

HMGB1 = HMGB1 quantitation in serum of septic mice (ELISA); format: in vivo, C57BL/6 mice; details: peptide by tail vein 1 h after bacterial injection; serum ELISA at 12 h; n = 8
Description: as §2

[1] = test system: liver, kidney, heart and lung; assay: Histopathological evaluation of organ injury in septic mice; format: in vivo, C57BL/6 mice; details: peptide i.v. 1 h after sepsis modeling; tissues at 12 h; HE staining, injury scores; n = 6
Description: as §2

In the case of “CVTKLGSLCVPGVGLLGDFFRKSKEKIGKEFKRIVQRIKDFLRNLVPRTES [VTK-LL37]”, the “inhibitory effect on bacterial growth of MSI001” value (bacterial strain MSI001) is reported as “inhibited MSI001 bacterial growth but also showed stronger antibiotic activity than LL37 alone in the early stage (1-3 h); also recorded: stronger bacteriostatic activity than other LL37 fusion peptides”, the “inhibition of biofilm formation” value (E. coli MSI001) is reported as “inhibited biofilm formation of E. coli MSI001, and VTK-LL37 had a stronger inhibition of biofilm formation at a low dose than LL37 alone” and the “survival of CLP mice” value (CLP mice) is reported as “significantly increased the survival of sepsis mice induced by CLP modeling”. For the same sequence, the “production of HMGB1 in serum of septic mice” value (HMGB1) was “significantly suppressed the production of HMGB1 in the serum of septic mice, which was superior to LL37” and the sepsis-induced organ injury [1] was “alleviated sepsis-induced injury to multiple organs, including the liver, lung, kidney and heart”.
